Measurements published in patent publication US11149037B2, “Pyrazole MAGL inhibitors” (H. Lundbeck A/S, priority 2017, dated 2021).

Legend:
FAAH [1] = biological target: FAAH (Homo sapiens (Human), UniProt O00519); experiment: In vitro competitive activity-based protein profiling, human proteomes (prefrontal cortex or PC3 cell membrane fractions); assay type: biochemical; conditions: human proteome; for inhibition at 1 µM: read-out: FAAH % inh. 1 μM (human)
In short: (§1)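 Activity of MAGL and FAAH was quantified from fluorescent gel band intensities. Beforehand, inhibitors at several concentrations competed against subsequent probe labelling (FP-Rh, JW912 or HT-01) in species-matched proteomes, each step 30 min at 37° C.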

MAGL [2] = biological target: MAGL (Homo sapiens (Human), UniProt Q99685); experiment: as above; assay type: biochemical; conditions: human proteome; for inhibition at 1 µM: read-out: MAGL % inh. 1 μM (human)
MAGL (Homo sapiens (Human), UniProt Q99685), sequence (Q99685 whole entry): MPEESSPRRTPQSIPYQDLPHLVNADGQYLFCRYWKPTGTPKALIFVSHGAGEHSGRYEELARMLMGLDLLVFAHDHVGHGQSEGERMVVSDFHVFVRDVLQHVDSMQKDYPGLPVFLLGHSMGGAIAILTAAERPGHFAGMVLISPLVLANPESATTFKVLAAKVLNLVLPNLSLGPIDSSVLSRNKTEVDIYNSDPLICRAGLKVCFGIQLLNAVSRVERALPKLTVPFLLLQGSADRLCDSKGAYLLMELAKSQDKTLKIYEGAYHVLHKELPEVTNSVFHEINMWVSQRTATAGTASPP
In short: as §1

FAAH [3] = biological target: T1, FAAH (Mus musculus (Mouse), UniProt O08914); experiment: In vitro competitive activity-based protein profiling, mouse proteomes (brain membrane fraction or cell lysates); assay type: biochemical; conditions: mouse proteome, read-out: FAAH % inh. 1 μM (mouse)
T1 sequence (O08914 whole entry): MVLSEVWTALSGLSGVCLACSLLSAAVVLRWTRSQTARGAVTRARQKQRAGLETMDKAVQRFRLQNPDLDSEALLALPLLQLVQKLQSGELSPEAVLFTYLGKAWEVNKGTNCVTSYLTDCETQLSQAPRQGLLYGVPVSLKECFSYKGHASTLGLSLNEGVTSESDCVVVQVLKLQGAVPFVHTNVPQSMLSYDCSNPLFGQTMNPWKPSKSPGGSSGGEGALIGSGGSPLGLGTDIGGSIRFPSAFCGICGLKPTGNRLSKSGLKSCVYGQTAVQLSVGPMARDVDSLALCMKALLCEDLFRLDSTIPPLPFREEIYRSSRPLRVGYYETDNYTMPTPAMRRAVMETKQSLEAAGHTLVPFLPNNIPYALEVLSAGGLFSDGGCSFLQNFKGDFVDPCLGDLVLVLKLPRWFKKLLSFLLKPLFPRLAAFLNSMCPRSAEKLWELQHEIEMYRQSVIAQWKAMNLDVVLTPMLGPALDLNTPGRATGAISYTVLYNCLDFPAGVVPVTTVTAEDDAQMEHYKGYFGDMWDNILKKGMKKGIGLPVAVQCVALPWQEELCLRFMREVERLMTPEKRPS
In short: as §1

MAGL [4] = biological target: T2, MAGL (Mus musculus (Mouse), UniProt O35678); experiment: as above; assay type: biochemical; conditions: mouse proteome, read-out: MAGL % inh. 1 μM (mouse)
T2 sequence (O35678 whole entry): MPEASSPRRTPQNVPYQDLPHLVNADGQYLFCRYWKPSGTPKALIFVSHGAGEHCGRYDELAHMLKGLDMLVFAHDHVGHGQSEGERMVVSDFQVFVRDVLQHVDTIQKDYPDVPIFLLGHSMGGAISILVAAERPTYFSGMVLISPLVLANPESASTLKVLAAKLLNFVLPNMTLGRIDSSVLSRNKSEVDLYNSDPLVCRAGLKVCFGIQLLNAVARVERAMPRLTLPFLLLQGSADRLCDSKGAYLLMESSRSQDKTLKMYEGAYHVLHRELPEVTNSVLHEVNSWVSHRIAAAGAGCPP
In short: as §1

FAAH [5] = biological target: T1, FAAH; experiment: Mouse brain proteomes from inhibitor treated mice (oral gavage, sacrificed 4 h after administration); assay type: in vivo; conditions: 5 mg/kg oral gavage
Protocol: (§2) Preparation of Mouse Brain Proteomes from Inhibitor Treated Mice.
(§3) Inhibitors were administered to wild-type C57B1/6J by oral gavage in a vehicle of polyethylene glycol. Each animal was sacrificed 4 h following administration and brain proteomes were prepared and analyzed according to previously established methods (See Niphakis, M. J., et al. (2011) ACS Chem. Neurosci. and Long, J. Z., et al. Nat. Chem. Biol. 5:37-44).

MAGL [6] = biological target: T2, MAGL; experiment: as above; assay type: in vivo; conditions: 5 mg/kg oral gavage
Protocol: as §2, §3

FAAH (Homo sapiens (Human), UniProt O00519), sequence (O00519 whole entry): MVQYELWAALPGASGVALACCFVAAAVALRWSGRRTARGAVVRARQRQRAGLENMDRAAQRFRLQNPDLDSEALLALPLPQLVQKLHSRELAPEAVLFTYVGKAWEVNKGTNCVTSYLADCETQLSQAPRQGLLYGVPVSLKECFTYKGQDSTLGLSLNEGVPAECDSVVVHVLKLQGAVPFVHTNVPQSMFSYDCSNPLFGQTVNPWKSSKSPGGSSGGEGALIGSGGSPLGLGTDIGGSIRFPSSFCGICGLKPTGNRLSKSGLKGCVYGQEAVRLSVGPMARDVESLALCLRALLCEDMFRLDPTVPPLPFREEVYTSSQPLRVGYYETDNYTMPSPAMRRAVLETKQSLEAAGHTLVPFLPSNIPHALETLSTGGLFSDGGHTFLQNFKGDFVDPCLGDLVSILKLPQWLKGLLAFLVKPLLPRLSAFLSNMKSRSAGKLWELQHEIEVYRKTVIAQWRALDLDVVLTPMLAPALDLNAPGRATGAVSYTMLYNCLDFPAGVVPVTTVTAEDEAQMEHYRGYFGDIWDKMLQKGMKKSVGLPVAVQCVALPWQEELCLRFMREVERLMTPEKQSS

Compound | inhibition at 1 µM (FAAH [1]) [%] | inhibition at 1 µM (MAGL [2]) [%] | inhibition at 1 µM (FAAH [3]) [%] | inhibition at 1 µM (MAGL [4]) [%] | FAAH % inh. 5 mg/kg (mouse) (FAAH [5]) | MAGL % inh. 5 mg/kg (mouse) (MAGL [6]) | IC50 (FAAH [1]) [µM] | IC50 (MAGL [2]) [µM]
CC(=O)Nc1ccn(C(=O)N2CCN(Cc3ccc(Cl)cc3OC3(C(=O)O)CC3)CC2)n1 [Example 4, 1-(2-((4-(3-acetamido-1H-pyrazole-1-carbonyl)piperazin-1-yl)methyl)-5-chlorophenoxy)cyclopropane-1-carboxylic acid] | 0 to 25 | > 75 | 0 to 25 | > 75 | D (% inhibition is greater than or equal to 0% and less than 25%) | D (% inhibition is greater than or equal to 0% and less than 25%) | – | –
C[C@@H](c1ccc(Cl)c(N2CCC(F)CC2)c1)N1CCN(C(=O)n2ccc(NS(C)(=O)=O)n2)CC1 [Example 11, (S)—N-(1-(4-(1-(4-chloro-3-(4-fluoropiperidin-1-yl)phenyl)ethyl)piperazine-1-carbonyl)-1H-pyrazol-3-yl)methanesulfonamide] | 0 to 25 | > 75 | 0 to 25 | > 75 | D (% inhibition is greater than or equal to 0% and less than 25%) | C (% inhibition is greater than or equal to 25% and less than 50%) | 1 to 10 | < 0.1
CS(=O)(=O)Nc1ccn(C(=O)N2CCN(Cc3ccc(Cl)c(N4CCCC45CC5)c3)CC2)n1 [Example 12, N-(1-(4-(4-chloro-3-(4-azaspiro[2.4]heptan-4-yl)benzyl)piperazine-1-carbonyl)-1H-pyrazol-3-yl)methanesulfonamide] | 0 to 25 | > 75 | 0 to 25 | > 75 | D (% inhibition is greater than or equal to 0% and less than 25%) | D (% inhibition is greater than or equal to 0% and less than 25%) | – | –
CC(=O)Nc1ccn(C(=O)N2CCC3(CCCN3Cc3cc4cc(C(N)=O)ccc4[nH]3)CC2)n1 [Example 14, 2-((8-(3-acetamido-1H-pyrazole-1-carbonyl)-1,8-diazaspiro[4.5]decan-1-yl)methyl)-1H-indole-5-carboxamide] | 0 to 25 | > 75 | 0 to 25 | 50 to 75 | D (% inhibition is greater than or equal to 0% and less than 25%) | D (% inhibition is greater than or equal to 0% and less than 25%) | 1 to 10 | < 0.1
CC(=O)Nc1ccn(C(=O)N2CCN(Cc3ccc(N4CC5COCC5C4)cc3C(F)(F)F)CC2)n1 (centres unmarked) [Example 22, N-(1-(4-(4-(tetrahydro-1H-furo[3,4-c]pyrrol-5(3H)-yl)-2-(trifluoromethyl)benzyl)piperazine-1-carbonyl)-1H-pyrazol-3-yl)acetamide] | 50 to 75 | > 75 | > 75 | > 75 | C (% inhibition is greater than or equal to 25% and less than 50%) | C (% inhibition is greater than or equal to 25% and less than 50%) | 0.1 to 1 | < 0.1
CC(C)OC1CCN(c2cc(CN3CCN(C(=O)n4ccc(NS(C)(=O)=O)n4)C[C@@H]3C)ccc2Cl)CC1 [Example 32, (S)—N-(1-(4-(4-chloro-3-(4-isopropoxypiperidin-1-yl)benzyl)-3-methylpiperazine-1-carbonyl)-1H-pyrazol-3-yl)methanesulfonamide] | 0 to 25 | > 75 | 0 to 25 | > 75 | D (% inhibition is greater than or equal to 0% and less than 25%) | A (% inhibition is greater than or equal to 75%) | – | –
CC(=O)Nc1ccn(C(=O)N2CCC3(CCCN3Cc3cc4cc(Cl)ccc4s3)CC2)n1 [Example 39, N-(1-(1-((5-Chlorobenzo[b]thiophen-2-yl)methyl)-1,8-diazaspiro[4.5]decane-8-carbonyl)-1H-pyrazol-3-yl)acetamide] | – | – | 50 to 75 | > 75 | D (% inhibition is greater than or equal to 0% and less than 25%) | A (% inhibition is greater than or equal to 75%) | 1 to 10 | < 0.1
CC(=O)Nc1ccn(C(=O)N2CC3CN(Cc4cc(Cl)cc(N5CCOCC5)c4)CC3C2)n1 (centres unmarked) [Example 167, N-(1-(5-(3-Chloro-5-morpholinobenzyl)octahydropyrrolo[3,4-c]pyrrole-2-carbonyl)-1H-pyrazol-3-yl)acetamide] | 25 to 50 | > 75 | > 75 | > 75 | – | – | – | –
CC(=O)Nc1ccn(C(=O)N2CC3CN(Cc4cc(Cl)cc(N5CCCC5)c4)CC3C2)n1 (centres unmarked) [Example 172, N-(1-(5-(3-Chloro-5-(pyrrolidin-1-yl)benzyl)octahydropyrrolo[3,4-c]pyrrole-2-carbonyl)-1H-pyrazol-3-yl)acetamide] | – | – | > 75 | > 75 | – | – | 0.1 to 1 | < 0.1
CC(=O)Nc1ccn(C(=O)N2CC3CN(Cc4cccc(Oc5ccccc5)c4)CC3C2)n1 (centres unmarked) [Example 173, N-(1-(5-(3-Phenoxybenzyl)octahydropyrrolo[3,4-c]pyrrole-2-carbonyl)-1H-pyrazol-3-yl)acetamide] | – | – | > 75 | > 75 | – | – | 0.1 to 1 | < 0.1
CC(=O)Nc1ccn(C(=O)N2CCC3(CCN(Cc4cc(F)cc(Cl)c4)C3)CC2)n1 [Example 176, N-(1-(2-(3-Chloro-5-fluorobenzyl)-2,8-diazaspiro[4.5]decane-8-carbonyl)-1H-pyrazol-3-yl)acetamide] | – | > 75 | – | > 75 | – | A (% inhibition is greater than or equal to 75%) | – | < 0.1
C[C@@H]1CN(C(=O)n2ccc(NS(C)(=O)=O)n2)CCN1Cc1ccc(C(F)(F)F)c(N2CC3COCC3C2)c1 (stereo partly drawn) [Example 182, N-(1-((3R)-3-Methyl-4-(3-(tetrahydro-1H-furo[3,4-c]pyrrol-5(3H)-yl)-4-(trifluoromethyl)benzyl)piperazine-1-carbonyl)-1H-pyrazol-3-yl)methanesulfonamide] | – | > 75 | – | > 75 | – | D (% inhibition is greater than or equal to 0% and less than 25%) | – | < 0.1
C[C@H]1CN(C(=O)n2ccc(NS(C)(=O)=O)n2)CCN1Cc1ccc(C(F)(F)F)c(N2CCC(C(F)(F)F)CC2)c1 [Example 185, (S)-N-(1-(3-Methyl-4-(4-(trifluoromethyl)-3-(4-(trifluoromethyl)piperidin-1-yl)benzyl)piperazine-1-carbonyl)-1H-pyrazol-3-yl)methanesulfonamide] | – | > 75 | – | > 75 | – | A (% inhibition is greater than or equal to 75%) | – | –
C[C@H]1CN(C(=O)n2ccc(NS(C)(=O)=O)n2)CCN1Cc1ccc(Cl)c(N2CCC(F)(F)CC2)c1 [Example 186, (S)-N-(1-(4-(4-Chloro-3-(4,4-difluoropiperidin-1-yl)benzyl)-3-methylpiperazine-1-carbonyl)-1H-pyrazol-3-yl)methanesulfonamide] | – | > 75 | – | > 75 | – | A (% inhibition is greater than or equal to 75%) | – | –
C[C@H]1CN(C(=O)n2ccc(NS(C)(=O)=O)n2)CCN1Cc1ccc(Cl)c(N2CCC(C(F)(F)F)CC2)c1 [Example 188, (S)-N-(1-(4-(4-Chloro-3-(4-(trifluoromethyl)piperidin-1-yl)benzyl)-3-methylpiperazine-1-carbonyl)-1H-pyrazol-3-yl)methanesulfonamide] | – | > 75 | – | > 75 | – | A (% inhibition is greater than or equal to 75%) | – | –
C[C@H]1CN(C(=O)n2ccc(NS(C)(=O)=O)n2)CCN1Cc1ccc(Cl)c(N2CC[C@H](F)C2)c1 [Example 189, N-(1-((S)-4-(4-Chloro-3-((S)-3-fluoropyrrolidin-1-yl)benzyl)-3-methylpiperazine-1-carbonyl)-1H-pyrazol-3-yl)methanesulfonamide] | – | > 75 | – | > 75 | – | A (% inhibition is greater than or equal to 75%) | – | –
CC(C)N1CCN(c2cc(CN3CCN(C(=O)n4ccc(NS(C)(=O)=O)n4)C[C@@H]3C)ccc2Cl)CC1=O [Example 190, (S)-N-(1-(4-(4-Chloro-3-(4-isopropyl-3-oxopiperazin-1-yl)benzyl)-3-methylpiperazine-1-carbonyl)-1H-pyrazol-3-yl)methanesulfonamide] | – | > 75 | – | > 75 | – | D (% inhibition is greater than or equal to 0% and less than 25%) | – | –
CN(Cc1ccc(Cl)cc1N1CC2COCC2C1)C1(C)CCN(C(=O)n2ccc(NS(C)(=O)=O)n2)CC1 (centres unmarked) [Example 197, N-(1-(4-((4-Chloro-2-(tetrahydro-1H-furo[3,4-c]pyrrol-5(3H)-yl)benzyl)(methyl)amino)-4-methylpiperidine-1-carbonyl)-1H-pyrazol-3-yl)methanesulfonamide] | – | > 75 | – | > 75 | – | D (% inhibition is greater than or equal to 0% and less than 25%) | – | –
